Reference: US20250032478A1 (SURGE Therapeutics, Inc., priority 2021, published 2025)

Legend:
[1] = Visual solubility assessment of Resiquimod Form I; type: physicochemical; conditions: room temperature
[2] = Hygroscopicity of solid form; type: physicochemical
[3] = Solubility in sodium phosphate buffered saline comprising 10 wt % poloxamer 407; type: physicochemical
[4] = system: 4T1-Luc2 breast cancer cells; assay: Survival of tumor resection mice, composition placed at tumor resection site; type: in vivo, female BALB/c mice
Method: 4T1-Luc2 breast cancer cells were cultured in RPMI-1640 medium, with 10% fetal bovine serum (FBS) and 1% penicillin/streptomycin. All cells were cultured in a 37° C. in a humidified incubator, with 5% Co2.
All animal experiments were performed using 6-8 weeks old female BALB/c mice (Jackson Laboratories, #000651). For animal survival studies, 10^5 4T1-Luc2 cells were inoculated orthotopically into the fourth mammary fat pad of a mouse. Mice were size-matched and randomly assigned to treatment groups, and surgery was performed on day 10 or day 12 after tumor inoculation. Tumor sizes were measured with calipers. For primary tumor resection, mice were anesthetized with 2% isoflurane, the tumor was resected, and a hydrogel was placed in the surgical site at the time of surgery.
In some embodiments, female BALB/cJs mice were inoculated orthotopically with 100,000 breast cancer cells (e.g., 4T1-Luc2 cells).

[5] = in polymer combination of 8-12.5% or 6-11% (w/w) poloxamer (e.g. 10% P407) and 1-5% (w/w) HA (e.g. 4% HA 119 KDa), at tumor resection site, FIG. 29

CCOCc1nc2c(N)nc3ccccc3c2n1CC(C)(C)O [Resiquimod Form I, Resiquimod]
Clear solution: Observation (visual solubility) ([1]; 2-Methyl THF, 0.25 mL added to 10 mg)
Light hazy solution: Observation (visual solubility) ([1]; 1-Butanol, 0.5 mL added to 10 mg) | Observation (visual solubility) ([1]; 1-Propanol, 0.5 mL added to 10 mg) | Observation (visual solubility) ([1]; 2-Butanol, 0.5 mL added to 10 mg) | Observation (visual solubility) ([1]; Amyl alcohol, 0.5 mL added to 10 mg) | Observation (visual solubility) ([1]; Chloroform, 0.5 mL added to 10 mg) | Observation (visual solubility) ([1]; Dichloromethane, 0.5 mL added to 10 mg) | Observation (visual solubility) ([1]; Isobutanol, 0.5 mL added to 10 mg) | Observation (visual solubility) ([1]; THF, 0.25-0.5 mL added to 10 mg) | Observation (visual solubility) ([1]; p-Dioxane, 0.5 mL added to 10 mg)
Suspension: Observation (visual solubility) ([1]; 2-Propanol, 0.5 mL added to 10 mg) | Observation (visual solubility) ([1]; Acetone, 0.5 mL added to 10 mg) | Observation (visual solubility) ([1]; Acetonitrile, 0.5 mL added to 10 mg) | Observation (visual solubility) ([1]; Anisole, 0.5 mL added to 10 mg) | Observation (visual solubility) ([1]; CPME, 0.5 mL added to 10 mg) | Observation (visual solubility) ([1]; Cyclohexane, 0.5 mL added to 10 mg) | Observation (visual solubility) ([1]; DMP, 0.5 mL added to 10 mg) | Observation (visual solubility) ([1]; Diethyl ether, 0.5 mL added to 10 mg) | Observation (visual solubility) ([1]; Ethyl acetate, 0.5 mL added to 10 mg) | Observation (visual solubility) ([1]; Heptane, 0.5 mL added to 10 mg) | Observation (visual solubility) ([1]; Hexane, 0.5 mL added to 10 mg) | Observation (visual solubility) ([1]; Isobutyl acetate, 0.5 mL added to 10 mg) | Observation (visual solubility) ([1]; Isopropyl acetate, 0.5 mL added to 10 mg) | Observation (visual solubility) ([1]; MEK, 0.5 mL added to 10 mg) | Observation (visual solubility) ([1]; MIBK, 0.5 mL added to 10 mg) | Observation (visual solubility) ([1]; MIPK, 0.5 mL added to 10 mg) | Observation (visual solubility) ([1]; MTBE, 0.5 mL added to 10 mg) | Observation (visual solubility) ([1]; Methyl acetate, 0.5 mL added to 10 mg) | Observation (visual solubility) ([1]; Nitromethane, 0.5 mL added to 10 mg) | Observation (visual solubility) ([1]; Octane, 0.5 mL added to 10 mg) | Observation (visual solubility) ([1]; Pentane, 0.5 mL added to 10 mg) | Observation (visual solubility) ([1]; Petroleum Ether, 0.5 mL added to 10 mg) | Observation (visual solubility) ([1]; Toluene, 0.5 mL added to 10 mg) | Observation (visual solubility) ([1]; Water, 0.5 mL added to 10 mg) | Observation (visual solubility) ([1]; Xylene, 0.5 mL added to 10 mg)
notably low hygroscopicity: hygroscopicity [2]
Light hazy solution throughout: Observation (visual solubility) ([1]; 2-Ethoxyethanol, 0.25-0.5 mL added to 10 mg) | Observation (visual solubility) ([1]; 2-Methoxyethanol, 0.25-0.5 mL added to 10 mg) | Observation (visual solubility) ([1]; Ethanol, 0.25-0.5 mL added to 10 mg) | Observation (visual solubility) ([1]; Methanol, 0.25-0.5 mL added to 10 mg) | Observation (visual solubility) ([1]; Propylene glycol, 0.25-0.5 mL added to 10 mg)
increased solubility: solubility [3]

CCOCc1nc2c(N)nc3ccccc3c2n1CC(C)(C)O [resiquimod, Resiquimod]
comparable to or better than: efficacy vs chemically-crosslinked hyaluronic acid hydrogel (HyStem) incorporated with resiquimod ([4]; in crosslinked hydrogel of 8-13.5% (w/w) Poloxamer (e.g. 10% P407) and 0.6-1.5% (w/w) HA (e.g. 1% HA 1.5 MDa), FIG. 27A-E)
much higher survival rate: survival rate vs control group receiving the hydrogel without resiquimod ([4]; in crosslinked hydrogel of 8-13.5% or 6-11% (w/w) Poloxamer and 0.6-1.5% (w/w) HA, at tumor resection site, FIG. 27A-E)
higher survival rate: survival rate vs control group receiving polymer combination without resiquimod [4, 5] | survival rate vs control group receiving polymer combination without resiquimod ([4]; in polymer combination of 8-12.5% or 6-11% (w/w) poloxamer and 1.2-2.75% (w/w) HA 730 KDa, at tumor resection site, FIG. 28A-D)
survived over a longer period of time: survival time vs control group receiving polymer combination without resiquimod ([4]; in polymer combination of 8-12.5% or 6-11% (w/w) poloxamer (e.g. 8%, 10% or 12.5% P407) and 1.2-2.75% (w/w) HA (e.g. 1.625% or 2.25% HA 730 KDa), at tumor resection site, FIG. 28A-D) | survival time vs control group receiving polymer combination without resiquimod [4, 5]
at least 50%: survival time longer than control group receiving the hydrogel without resiquimod ([4]; in crosslinked hydrogel of 8-13.5% or 6-11% (w/w) Poloxamer (e.g. 10% P407) and 0.6-1.5% (w/w) HA (e.g. 1% HA 1.5 MDa), at tumor resection site, FIG. 27A-E)
